From patent US4996219A, “Imidazolidine derivatives as immunosuppressives” (Boehringer Mannheim GmbH, priority 1988, dated 1991)
Values after ≈ are worked out from the molar mass of the structure shown. Values joined by “and” are separate entries in the source; they are usually repeats but may differ in a detail not shown here. Identical values can stand only once.

Columns and labels:
[1] = tested on: Meth A fibrosaccoma cell line; test: Tumor-growth Inhibition Test (TGI); format: cell-based, mice; settings: 48 h, 3H thymidine incorporation, Imexon and Ex. 1: mean ± standard deviation of n experiments, others: single tests No. 1-3; for IC50: Mus musculus, Meth-A
Description: (b) Tumor-growth Inhibition Test
A Meth A fibrosaccoma cell line is passaged weekly as ascites in mice. After the ascites is punctured, the cells are washed and adjusted to a cell density of 5×10^4 vital cells/ml in the aforementioned medium. 200 /μl of this suspension are pipetted into the cavities of a microtitration plate and solution of the substances to be tested are added as above. 3 hours before the end of the 48 h incubation period ^3 H thymidine is added. The proliferation of the individual cultures is determined by the incorporated radioactive thymidine.
(§1) For the upper two compounds the means plus standard deviations from n experiments are shown.

human T-lymphocytes = test: Interleukin-2 dependent proliferation of human T-lymphocytes (IL-2); format: cell-based; settings: IL-2 stimulated, 48 h, 3H thymidine incorporation, Imexon and Ex. 1: mean ± standard deviation of n experiments, others: single tests No. 1-3; for IC50: Homo sapiens, T-lymphocyte
Description: (c) Interleukin-2 dependent proliferation of human T-lymphocytes (IL-2)
The mononuclear cell fraction is separated from heparinized human whole blood by means of a Ficoll gradient. After washing twice, the cell number is adjusted to 1×10^6 ml and incubation is carried out with 3 /μg/ml of Concanavalin A for 3 days. After washing twice, the cell number is set to 5×10^5 cells/ml. 160 /μl of this cell suspension are incubated with 20 /μl IL-2 and 20 /μl of a dilution of the test substance in microtitration plates for a total of 48 h. 4 hours before the end of incubation, ^3 H thymidine is added. The proliferation of the cultures is determined by means of the incorporated radioactivity.
as §1

Mice splenocytes = test: Concanavalin-A induced lymphocyte proliferation (LPT); format: cell-based
Description: (a) Concanavalin-A induced lymphocyte proliferation (LPT)
Mice splenocytes are adjusted in RPMI 1640 medium (with conventional additions of streptomycin, penicillin, L-glutamine and 10% fetal calf serum) to a cell density of 2×10^6 viable cells per ml. 200 μl of this cell suspension are mixed with 20 μl of an 11-fold concentrated solution of the substance to be tested. 0,5 /μg of Concanavalin A in 10 μl of phosphate buffered saline solution (PBS) are added as mitogenic stimulus to each culture. 5 hours before the end of the 48 h incubation period, the individual cultures receive 20 /μl of a 3H-thymidine solution and the proliferation of the cells is determined by means of incorporated radioactivity.
as §1

human B lymphocytes = test: B-cell growth factor dependent proliferation of human B lymphocytes (BCGF); format: cell-based; settings: BCGF stimulated, 140 h, 3H thymidine incorporation, Imexon and Ex. 1: mean ± standard deviation of n experiments, others: single tests No. 1-3; for IC50: Homo sapiens, Lymphocyte
From the text: (d) B-cell growth factor dependent proliferation of human B lymphocytes (BCGF). The macrophage/monocytes are removed from the mononuclear cell fraction (see above) by adhesion to plastic petri dishes. T lymphocytes are separated by rosetting with neuraminidase-treated sheep erythrocytes. The enriched human B-lymphocyte population so obtained is adjusted to 3×10^5 /ml. 160 /μl of this suspension together with 10 /μl of BCGF (B cell growth factor) and 20 /μl of the substance dilution to be tested are incubated for a total of 140 h. 16 h before the end of incubation, ^3 H thymidine is added and analysis is carried out as already described. […] For the upper two compounds the means plus standard deviations from n experiments are shown.

[2] = Concanavalin A stimulated, 48 h, 3H-thymidine incorporation; Imexon and Ex. 1: mean ± standard deviation of n experiments, others: single tests No. 1-3
[3] = Mus musculus, Splenocyte, Concanavalin A stimulated, 48 h, 3H-thymidine incorporation; Imexon and Ex. 1: mean ± standard deviation of n experiments, others: single tests No. 1-3

IC50 TGI [1]	IC50 [1]	Compound	IC50 (human T-lymphocytes)	IC50 LPT (Mice splenocytes; [2])	IC50 (Mice splenocytes; [3])	IC50 BCGF (human B lymphocytes)	IC50 (human B lymphocytes)	IC50 IL 2 (human T-lymphocytes)	IC50 (Mice splenocytes; Mus musculus, Splenocyte, 48 h, Concanavalin A stimulated, 3H-thymidine incorporation, Imexon and Ex. 1: mean ± standard deviation of n experiments, others: single tests No. 1-3)
	7.5 µg/mL (≈ 49 µM)	C=C1NC(=O)N(CCC)C1=N [Ex. BV12, 3-n-propyl-4-imino-5-methyleneimidazolidin-2-one]	5.1 µg/mL (≈ 33.3 µM)			2,6 /μg/ml	3.2 µg/mL (≈ 20.9 µM)	4,6 /μg/ml	
2,1 /μg/ml and 3,5 /μg/ml	< 3 µg/mL	C=C1NC(=O)N(c2ccccc2)C1=N [Ex. BV17, 3-phenyl-4-imino-5-methyleneimidazolidin-2-one]							
2,3 /μg/ml	4.2 µg/mL (≈ 33.6 µM)	C=C1NC(=O)N(C)C1=N [Ex. BV11, 3-methyl-4-imino-5-methyleneimidazolidin-2-one]	≤ 3 µg/mL						

The remaining lines, values behind:

Compound	IC50 TGI [1]	IC50 [1]	IC50 (human T-lymphocytes)	IC50 LPT (Mice splenocytes; [2])	IC50 (Mice splenocytes; [3])	IC50 BCGF (human B lymphocytes)	IC50 (human B lymphocytes)	IC50 IL 2 (human T-lymphocytes)	IC50 (Mice splenocytes; Mus musculus, Splenocyte, 48 h, Concanavalin A stimulated, 3H-thymidine incorporation, Imexon and Ex. 1: mean ± standard deviation of n experiments, others: single tests No. 1-3)
CC=C1NC(=O)NC1=N [Ex. 2, 4-imino-5-ethylideneimidazolidin2-one]	> 30 µg⁻¹ mL⁻¹	22.6 µg/mL (≈ 181 µM)	> 10 µg/mL	11,1 /μg/ml	12 µg/mL (≈ 95.9 µM)				
CC(C)=C1NC(=O)NC1=N [Ex. 3, 4-Imino-5-isopropylideneimidazolidin-2-one]				20,7 /μg/ml and > 10 /μg/ml					
C=C1NC(=O)N(C2CCCCC2)C1=N [Ex. BV14, 3-cyclohexyl-4-imino-5-methyleneimidazolidin-2-one]							< 3 µg/mL		
N=C1NC(=O)N2CC12 (centres unmarked) [Imexon, 4-imino-1,3-diazabicyclo[3.1.0]hexan-2-one, reference compound]		11.3 µg/mL (≈ 102 µM)	5.1 µg/mL (≈ 45.9 µM)		6.3 µg/mL (≈ 56.7 µM)		0.9 µg/mL (≈ 8.1 µM)		
C=C1NC(=O)N(Cc2ccccc2)C1=N [Ex. 4, 3-Benzyl-4-imino-5-methyleneimidazolidin-2-one]		2.8 µg/mL (≈ 13.9 µM)				1,6 /μg/ml	< 3 µg/mL		
C=C1NC(=O)N(Cc2ccncc2)C1=N [Ex. BV16, 3-(4-pyridylmethyl)-4-imino-5-methyleneimidazolidin2-one]	5,1 /μg/ml and 5,5 /μg/ml	3.9 µg/mL (≈ 19.3 µM)	3.5 µg/mL (≈ 17.3 µM)					4,8 /μg/ml	
C=C1NC(=O)NC1=N [Ex. 1, 4-Imino-5-methyleneimidazolidin-2-one]		> 10.3 µg/mL	2.6 µg/mL (≈ 23.4 µM)				1.9 µg/mL (≈ 17.1 µM)		3.9 µg/mL (≈ 35.1 µM)
